From publication PMC6121469 (International Journal of Molecular Sciences, 2018)

How the values were obtained:
TASK-3 WT channel [1] = target: T1, TASK-3 WT channel (Cavia porcellus, UniProt Q9JL58); settings: +80 mV, HEK-293 cells
[2] = target: TASK-3/2loop2 (cap-less TASK-3 channel) (Cavia porcellus, UniProt Q9JL58); settings: symmetrical K+ conditions, HEK-293 cells
TASK-3/2loop2/Y99A = TASK-3/2loop2/Y99A (Cavia porcellus, UniProt Q9JL58); settings: HEK-293 cells
TASK-3/2loop2/Y205A = TASK-3/2loop2/Y205A (Cavia porcellus, UniProt Q9JL58, Y205A, form not given); settings: HEK-293 cells
TASK-3/2loop2/Y99A/Y205A = TASK-3/2loop2/Y99A/Y205A (Cavia porcellus, UniProt Q9JL58, Y205A, form not given); settings: HEK-293 cells; similar to TASK-3 WT
Kv2.1 channel = Kv2.1 channel (Rattus norvegicus, UniProt P15387); assay: cell-based; settings: HEK293, read-out: inhibition of Kv2.1 currents
TASK-3 WT channel [3] = target: T1, TASK-3 WT channel; assay: cell-based

T1 sequence (Q9JL58 whole entry): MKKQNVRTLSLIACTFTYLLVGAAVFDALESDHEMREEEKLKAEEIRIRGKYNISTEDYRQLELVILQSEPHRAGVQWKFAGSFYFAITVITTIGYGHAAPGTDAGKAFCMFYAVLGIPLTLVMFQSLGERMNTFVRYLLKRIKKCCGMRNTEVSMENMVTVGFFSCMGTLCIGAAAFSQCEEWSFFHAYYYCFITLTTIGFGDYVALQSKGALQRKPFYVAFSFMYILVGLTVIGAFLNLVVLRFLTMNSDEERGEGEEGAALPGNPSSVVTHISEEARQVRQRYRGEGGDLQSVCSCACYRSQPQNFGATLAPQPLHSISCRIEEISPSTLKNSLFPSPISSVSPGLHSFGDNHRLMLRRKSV
Sequence of TASK-3/2loop2/Y205A (Q9JL58 with tags, fused parts or gaps Y205A, form open): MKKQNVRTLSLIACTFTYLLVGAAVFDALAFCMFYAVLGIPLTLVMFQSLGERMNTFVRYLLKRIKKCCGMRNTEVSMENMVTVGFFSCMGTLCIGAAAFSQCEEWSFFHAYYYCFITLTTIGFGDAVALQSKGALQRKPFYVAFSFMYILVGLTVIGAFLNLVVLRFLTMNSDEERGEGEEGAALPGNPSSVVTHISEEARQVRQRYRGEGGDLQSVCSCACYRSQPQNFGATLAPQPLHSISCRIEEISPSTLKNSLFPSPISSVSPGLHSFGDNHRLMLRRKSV
Sequence of TASK-3/2loop2/Y99A (Q9JL58 with tags, fused parts or gaps): as the sequence (Q9JL58 with tags, fused parts or gaps Y205A, form open) above, with A127Y counted along it
Sequence of TASK-3/2loop2 (cap-less TASK-3 channel) (Q9JL58 with tags, fused parts or gaps): as the sequence (Q9JL58 with tags, fused parts or gaps Y205A, form open) above, with A127Y counted along it
Sequence of TASK-3/2loop2/Y99A/Y205A (Q9JL58 with tags, fused parts or gaps Y205A, form open): as the sequence (Q9JL58 with tags, fused parts or gaps Y205A, form open) above
Sequence of Kv2.1 channel (P15387 whole entry): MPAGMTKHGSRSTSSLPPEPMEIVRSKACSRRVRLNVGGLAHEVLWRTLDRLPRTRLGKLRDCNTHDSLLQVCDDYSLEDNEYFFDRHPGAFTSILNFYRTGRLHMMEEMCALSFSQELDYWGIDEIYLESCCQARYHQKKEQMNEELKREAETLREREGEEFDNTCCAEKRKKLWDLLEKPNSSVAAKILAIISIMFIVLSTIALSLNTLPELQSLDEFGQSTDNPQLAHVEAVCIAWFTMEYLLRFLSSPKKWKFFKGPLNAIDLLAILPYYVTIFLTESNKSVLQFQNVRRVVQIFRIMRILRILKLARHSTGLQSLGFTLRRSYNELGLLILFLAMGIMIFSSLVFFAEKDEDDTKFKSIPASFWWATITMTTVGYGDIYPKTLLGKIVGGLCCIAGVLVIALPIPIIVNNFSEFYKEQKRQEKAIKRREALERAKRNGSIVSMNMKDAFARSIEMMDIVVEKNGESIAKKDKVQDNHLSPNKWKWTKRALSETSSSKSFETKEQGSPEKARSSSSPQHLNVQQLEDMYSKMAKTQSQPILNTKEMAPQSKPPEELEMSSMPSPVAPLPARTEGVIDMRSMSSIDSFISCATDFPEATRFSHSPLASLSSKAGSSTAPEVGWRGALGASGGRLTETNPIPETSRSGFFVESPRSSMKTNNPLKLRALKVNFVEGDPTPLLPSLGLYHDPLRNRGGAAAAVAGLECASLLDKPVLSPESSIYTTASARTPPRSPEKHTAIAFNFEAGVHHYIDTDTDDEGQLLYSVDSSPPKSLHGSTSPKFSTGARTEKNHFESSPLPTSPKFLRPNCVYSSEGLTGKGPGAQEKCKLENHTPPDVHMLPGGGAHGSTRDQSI

For `CC[N+](CC)(CC)CC` [TEA, tetraethylammonium], the “inhibition at saturating TEA concentrations” value (TASK-3 WT channel [1]) was 30%, the maximum inhibition [2] was 90% and the IC50 ([2]; n = 4) was 11.8 ± 0.4 mM. For the same molecule, the maximal inhibition (TASK-3/2loop2/Y99A) was 46%, the IC50 (TASK-3/2loop2/Y99A; n = 4) was 17.3 ± 1.8 mM and the maximal inhibition (TASK-3/2loop2/Y205A) was 59%. For the same molecule, the IC50 (TASK-3/2loop2/Y205A; n = 3) was 63.9 ± 5.4 mM, the “sensitivity to TEA blockade” value (TASK-3/2loop2/Y99A/Y205A) was “essentially insensitive” and the inhibition at 100000 µM (Kv2.1 channel) was ~85%. For the same molecule, the IC50 (TASK-3 WT channel [3]) was 12.5 ± 3.4 mM.
